Reference: patent US8273753B2, “Polymorph B of N-{2-Fluoro-5-[3-(thiophene-2-carbonyl)-pyrazolo[1,5-a]pyrimidin-7-yl]-phenyl}-N-methyl-acetamide” (Ferrer International, S.A., priority 2006, dated 2012)

Tests used:
Format in all cases: in vivo
[1] = test system: mice; test: Two-way active avoidance paradigm in mice (amnesia liability); conditions: oral administration; for MED amnesia (minimal effective dose that induces statistically significant impairment of memory): two-way active avoidance
Experimental: Finally, a third experiment to evaluate adverse effects was performed. The model was the two-way active avoidance paradigm, which represents a behavioural test useful for evaluating learning and memory processes in mice. In this case, the amnesia liability index was obtained. Since it was reported that benzodiazepine-like drugs induce amnesia, this index allows to determine the margin between the preclinical effective doses that induce sedation compared to the minimal effective dose that induce statistically significant impairment of memory in mice (MED amnesia/ED50 sedation). Therefore, the amnesic liability index was calculated for both compounds. The results obtained are included in Table 1

[2] = test system: mice; test: Spontaneous motor activity in mice after oral administration (induction of sedation); conditions: for ED50: Mus musculus, oral administration, spontaneous motor activity, read-out: ED50 sedation (dose that induces sedation in 50% of animals)
Experimental: The effect of oral administration of both indiplon and the compound of the present invention on the spontaneous motor activity in mice is an accepted model to evaluate the induction of the sedation, an experiment considered predictive of hypnotic efficacy. In this experiment, the ED50—the dose that induces sedation in 50% of animals—was calculated.

[3] = test system: mice; test: EEG recording of the sleep-wake cycle in mice; conditions: FIG. 7; for Effect on the three sleep parameters (time of wake, slow wave sleep, paradoxical sleep): mice, EEG, doses ED50, 3-fold and 6-fold
Experimental: This increased sedative/hypnotic efficacy was confirmed by electroencephalographyc (EEG) experiments, when the recording of the sleep-wake cycle in mice was evaluated. Based on the previous experiment, doses were chosen and both compounds were tested at equipotent pharmacological doses (the ED50, 3-fold and 6-fold for both cases).
In FIG. 7, results are expressed as the mean time (min±SEM) spent in each behavioral state during a recording period of 6 h in the same animals (n=9).

[4] = mice n=9, 6 h recording period, largest dose

| SMILES | Amnesic liability Index (MED amnesia/ED50 sedation) [1] [fold margin] | Greater margin between sedation induction and amnesia than indiplon [1] [fold] | MED amnesia (minimal effective dose that induces statistically significant impairment of memory) [1] [mg/kg] | ED50 [2] [mg/kg] | Sedative potency relative to indiplon (more potent) ([2]; oral, ED50 0.13 vs 0.2 mg/Kg) [%] | Paradoxical sleep (PS) time, change [3, 4] | Slow wave sleep (SWS) mean time [3, 4] | Waking (W) time, change [3, 4] | Effect on the three sleep parameters (time of wake, slow wave sleep, paradoxical sleep) [3] |
| --- | --- | --- | --- | --- | --- | --- | --- | --- | --- |
| CC(=O)N(C)c1cc(-c2ccnc3c(C(=O)c4cccs4)cnn23)ccc1F [Compound (I), N-{2-Fluoro-5-[3-(thiophene-2-carbonyl)-pyrazolo[1,5-a]pyrimidin-7-yl]-phenyl}-N-methyl-acetamide] | 75 | 25 | 10 | 0.13 | 35 | increase | up to 140 min | decrease | statistically significant improvement on all three of the parameters evaluated |
| CC(=O)N(C)c1cccc(-c2ccnc3c(C(=O)c4cccs4)cnn23)c1 [Indiplon, N-{3-[3-(thiophene-2-carbonyl)-pyrazolo[1,5-a]pyrimidin-7-yl]-phenyl}-N-methyl-acetamide, reference compound] | 50 |  | 10 | 0.2 |  |  | less than 140 min |  | effective only in one parameter (slow wave sleep) |
